Test results published in patent US7932283B2, “Fungicide N-cyclopropyl-sulfonylamide derivatives” (Bayer Cropscience AG, priority 2006, dated 2011).

Columns and labels:
Podosphaera leucotricha = assay: In vivo test on Podosphaera leucotricha (apple mildew), preventive spray; settings: 240 h, apple young plants, evaluated 10 days after inoculation, good (at least 70%) to total protection
Protocol: In Vivo Test on Podosphaera leucotncha (Apple Mildew) [table] To produce a suitable preparation of active compound, 1 part by weight of active compound is mixed with the stated amounts of solvent and emulsifier, and the concentrate is diluted with water to the desired concentration. Young plants are sprayed with the preparation of active compound at the stated rate of application. After the spray coating has dried on, the plants are inoculated with an aqueous spore suspension of the causal agent of apple mildew (Podosphaera leucobicha). The plants are then placed in a greenhouse at approximately 23° C. and a relative atmospheric humidity of approximately 70%. The test is evaluated 10 days after the inoculation. Under these conditions, good (at least 70%) to total protection is observed at a dose of 100 ppm with the following compounds: 104, 160, 176, 177, 180, 186, 187, 188, 192, 194, 196, 198, 203, 204, 205, 207, 209, 210, 211, 212, 213, 218 and 446.

[1] = test system: Erysiphe graminis f.sp. horde; assay: In vivo test on Erysiphe graminis (barley mildew), preventive spray; settings: Blumeria graminis, 168 h, barley young plants, evaluated 7 days after inoculation, good (at least 70%) to total protection
Protocol: In Vivo Test on Erysiphe Graminis (Barley Mildew) [table] To produce a suitable preparation of active compound, 1 part by weight of active compound or active compound combination is mixed with the stated amounts of solvent and emulsifier, and the concentrate is diluted with water to the desired concentration. Young plants are sprayed with the preparation of active compound or active compound combination at the stated rate of application. After the spray coating has dried on, the plants are dusted with spores of Erysiphe graminis f.sp. horde. The plants are placed in a greenhouse at a temperature of approximately 20° C. and a relative atmospheric humidity of approximately 80% to promote the development of mildew pustules. The test is evaluated 7 days after the inoculation. Under these conditions, good (at least 70%) to total protection is observed at a dose of 1000 ppm with the following compounds: 104, 160, 177, 178, 186, 192, 194, 203, 204, 205, 207, 210, 212, 213 and 435.

Pyrenophora teres = assay: In vivo test on Pyrenophora teres (barley net blotch); settings: 288 h, barley plants (Express variety), grading 12 days after contamination, good (at least 70%) or total protection
Protocol: In Vivo Test on Pyrenophore teres (Barley Net Blotch)
The active ingredients tested are prepared by homogenisation in a mixture of acetone/tween/DMSO, then diluted with water to obtain the desired active material concentration. Barley plants (Express variety) in starter cups, sown on a 50/50 peat soil-pozzolana substrate and grown at 12° C., are treated at the 1-leaf stage (10 cm tall) by spraying with the active ingredient prepared as described above. Plants, used as controls, are treated with the mixture of acetone/tween/DMSO/water not containing the active material.
After 24 hours, the plants are contaminated by spraying them with an aqueous suspension of Pyrenophora teres spores (12,000 spores per ml). The spores are collected from a 12-day-old culture. The contaminated barley plants are incubated for 24 hours at about 20° C. and at 100% relative humidity, and then for 12 days at 80% relative humidity.

Puccinia recondita = assay: In vivo test on Puccinia recondita f. sp. tritici (wheat brown rust); settings: 240 h, wheat plants (Scipion variety), grading 10 days after contamination, good (at least 70%) or total protection
[2] = logP by HPLC on reversed-phase column (C 18), EEC Directive 79/B31 Annex V.A8, methods A and B; assay type: physicochemical; settings: linear gradient 10% to 90% acetonitrile; for chromatographic logP: reversed-phase HPLC column (C 18)
Protocol: Calibration was carried out using unbranched alkan-2-ones (having 3 to 16 carbon atoms) with known logP values (determination of the logP values by the retention times using linear interpolation between two successive alkanones).

Alternaria solani = assay: In vivo test on Alternaria solani (tomato leaf spot), preventive spray; settings: 168 h, tomato young plants, evaluated 7 days after inoculation, good (at least 70%) to total protection
Protocol: In Vivo Test on Alternaria Solani (Tomato Leaf Spot) [table] To produce a suitable preparation of active compound, 1 part by weight of active compound is mixed with the stated amounts of solvent and emulsifier, and the concentrate is diluted with water to the desired concentration. Young plants are sprayed with the preparation of active compound at the stated rate of application. After the spray coating has dried on, the plants are inoculated with an aqueous spore suspension of Alternaria solani. The plants remain for one day in an incubation cabinet at approximately 20° C. and a relative atmospheric humidity of 100%. Then the plants are placed in an incubation cabinet at approximately 20° C. and a relative atmospheric humidity of 96%. The test is evaluated 7 days after the inoculation. Under these conditions, good (at least 70%) to total protection is observed at a dose of 500 ppm with the following compounds 110, 143, 160, 175, 176, 178, 179, 180, 186, 187, 189, 192, 196, 198, 203, 204, 205, 209, 210, 212, 214, 215 and 652.

[3] = HPLC reversed-phase C 18, method A: 43° C., 0.1% aqueous phosphoric acid, acetonitrile
[4] = LogP method A: HPLC reversed-phase C 18, 43° C., 0.1% aqueous phosphoric acid / acetonitrile

| Structure (SMILES) | pest or weed control at 100 ppm (Podosphaera leucotricha) | pest or weed control at 1000 ppm [1] | pest or weed control at 500 ppm (Alternaria solani) | chromatographic logP [2, 3] | further results |
| --- | --- | --- | --- | --- | --- |
| Cn1nc(C(F)F)c(C(=O)N(C2CC2)S(=O)(=O)c2cccc(O)c2O)c1F [Compound 104] | ≥ 70% | ≥ 70% | – | – | pest or weed control at 500 ppm (Pyrenophora teres): ≥ 70%; pest or weed control at 500 ppm (Puccinia recondita): ≥ 70%; chromatographic logP ([2]; HPLC reversed-phase C 18, method B: 40° C., 0.1% aqueous formic acid and acetonitrile): 3.2 |
| COc1nn(C)cc1C(=O)N(C1CC1)S(=O)(=O)c1ccc(Oc2ccccc2)cc1 [Compound 143] | – | – | ≥ 70% | – | – |
| Cc1cccc(S(=O)(=O)N(C(=O)c2c(C)nn(C)c2F)C2CC2)c1 [Compound 175] | – | – | ≥ 70% | 2.61 | – |
| Cc1nn(C)c(F)c1C(=O)N(C1CC1)S(=O)(=O)c1cccc(O)c1 [Compound 176] | ≥ 70% | – | ≥ 70% | 2.82 | – |
| Cc1nn(C)c(F)c1C(=O)N(C1CC1)S(=O)(=O)c1cccc(C(F)(F)F)c1 [Compound 177] | ≥ 70% | ≥ 70% | – | 3.03 | – |
| Cc1nn(C)c(F)c1C(=O)N(C1CC1)S(=O)(=O)c1ccc(O)c(O)c1 [Compound 178] | – | ≥ 70% | ≥ 70% | 3.35 | – |
| Cc1nn(C)c(F)c1C(=O)N(C1CC1)S(=O)(=O)c1ccc(F)cc1 [Compound 179] | – | – | ≥ 70% | 2.46 | – |
| Cc1nn(C)c(F)c1C(=O)N(C1CC1)S(=O)(=O)c1ccccc1O [Compound 180] | ≥ 70% | – | ≥ 70% | 2.34 | pest or weed control at 500 ppm (Pyrenophora teres): ≥ 70% |
| Cc1nn(C)c(F)c1C(=O)N(C1CC1)S(=O)(=O)c1ccc(O)cc1O [Compound 186] | ≥ 70% | ≥ 70% | ≥ 70% | 2.94 | – |
| Cc1nn(C)c(F)c1C(=O)N(C1CC1)S(=O)(=O)c1ccc(Oc2ccccc2)cc1 [Compound 187] | ≥ 70% | – | ≥ 70% | 3.42 | – |
| Cc1cc(C)c(S(=O)(=O)N(C(=O)c2c(C)nn(C)c2F)C2CC2)c(C)c1 [Compound 189] | – | – | ≥ 70% | 3.05 | – |
| Cc1nn(C)c(F)c1C(=O)N(C1CC1)S(=O)(=O)c1ccc(C(C)(C)C)cc1 [Compound 192] | ≥ 70% | ≥ 70% | ≥ 70% | 3.55 | – |
| Cc1nn(C)c(F)c1C(=O)N(C1CC1)S(=O)(=O)c1ccc(O)c(C(F)(F)F)c1 [Compound 194] | ≥ 70% | ≥ 70% | – | 3.5 | – |
| Cc1ccccc1S(=O)(=O)N(C(=O)c1c(C)nn(C)c1F)C1CC1 [Compound 196] | ≥ 70% | – | ≥ 70% | 2.43 | – |
| Cc1ccc(C)c(S(=O)(=O)N(C(=O)c2c(C)nn(C)c2F)C2CC2)c1 [Compound 198] | ≥ 70% | – | ≥ 70% | 2.78 | – |
| Cc1nn(C)c(F)c1C(=O)N(C1CC1)S(=O)(=O)c1ccccc1OC(F)(F)F [Compound 203] | ≥ 70% | ≥ 70% | ≥ 70% | 2.75 | – |
| Cc1nn(C)c(F)c1C(=O)N(C1CC1)S(=O)(=O)c1ccccc1Br [Compound 204] | ≥ 70% | ≥ 70% | ≥ 70% | 2.37 | – |
| Cc1nn(C)c(F)c1C(=O)N(C1CC1)S(=O)(=O)c1ccccc1F [Compound 205] | ≥ 70% | ≥ 70% | ≥ 70% | 2.25 | – |
| Cc1nn(C)c(F)c1C(=O)N(C1CC1)S(=O)(=O)c1ccccc1C(F)(F)F [Compound 207] | ≥ 70% | ≥ 70% | – | 2.6 | – |
| Cc1nn(C)c(F)c1C(=O)N(C1CC1)S(=O)(=O)c1ccc(-c2ccccc2)cc1 [Compound 209] | ≥ 70% | – | ≥ 70% | 3.39 | – |
| Cc1nn(C)c(F)c1C(=O)N(C1CC1)S(=O)(=O)c1cccc(O)c1O [Compound 210] | ≥ 70% | ≥ 70% | ≥ 70% | 2.77 | pest or weed control at 500 ppm (Pyrenophora teres): ≥ 70% |
| Cc1nn(C)c(F)c1C(=O)N(C1CC1)S(=O)(=O)c1ccc(O)c(O)c1O [Compound 212] | ≥ 70% | ≥ 70% | ≥ 70% | 3.35 | – |
| Cc1nn(C)c(F)c1C(=O)N(C1CC1)S(=O)(=O)c1ccc(C(F)(F)F)cc1O [Compound 213] | ≥ 70% | ≥ 70% | – | 3.19 | – |
| Cc1nn(C)cc1C(=O)N(C1CC1)S(=O)(=O)c1ccccc1O [Compound 214] | – | – | ≥ 70% | – | LogP [2, 3]: 2.31 |
| Cc1nn(C)c(C)c1C(=O)N(C1CC1)S(=O)(=O)c1ccccc1O [Compound 215] | – | – | ≥ 70% | 2.17 | – |
| Cc1nn(C)c(F)c1C(=O)N(C1CC1)S(=O)(=O)c1cc(O)sc1O [Compound 435] | – | ≥ 70% | – | – | chromatographic logP [2, 4]: 3.16 |
| CC1=C(C(=O)N(C2CC2)S(=O)(=O)c2ccccc2O)OCCS1 [Compound 652] | – | – | ≥ 70% | – | chromatographic logP [2, 4]: 2.78 |
